Experimental data taken from BindingDB's records for doi:10.7270/Q28P5XZM (Nmmlsc, 2011).

Target: T1, General amino acid permease AGP1 (Saccharomyces cerevisiae (strain ATCC 204508 / S288c), UniProt P25376)
T1 sequence (P25376 whole entry): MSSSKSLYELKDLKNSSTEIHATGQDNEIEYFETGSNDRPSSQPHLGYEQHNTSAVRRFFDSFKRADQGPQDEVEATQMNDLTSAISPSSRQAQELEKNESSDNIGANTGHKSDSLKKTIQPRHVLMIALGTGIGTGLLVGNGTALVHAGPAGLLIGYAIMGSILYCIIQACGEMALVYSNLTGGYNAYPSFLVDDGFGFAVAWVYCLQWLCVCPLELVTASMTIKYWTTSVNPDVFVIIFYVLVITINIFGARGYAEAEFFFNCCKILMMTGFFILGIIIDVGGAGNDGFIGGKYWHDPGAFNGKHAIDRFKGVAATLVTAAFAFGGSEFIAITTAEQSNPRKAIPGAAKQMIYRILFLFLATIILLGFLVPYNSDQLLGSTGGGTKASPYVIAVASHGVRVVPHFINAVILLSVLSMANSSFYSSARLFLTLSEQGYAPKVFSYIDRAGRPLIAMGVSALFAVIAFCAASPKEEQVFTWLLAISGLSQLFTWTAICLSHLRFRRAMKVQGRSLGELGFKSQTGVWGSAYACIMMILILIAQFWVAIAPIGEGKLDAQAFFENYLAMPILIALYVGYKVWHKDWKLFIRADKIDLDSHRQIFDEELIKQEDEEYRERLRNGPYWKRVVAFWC
Assay: analog potency on AGP1-GFP expression in yeast, SAR follow-up, cell-based, flow cytometry, S. cerevisiae, cherry pick 3 (AID 488790)
Details: inactive by the depositor's call

Row | EC50 | SMILES
1 | 76.4 µM | Nc1ncnc(Nc2cc(Cl)cc(Cl)c2)c1[N+](=O)[O-] [MLS000581561]
2 | 775 µM | Cc1ccc(C(=O)Nc2nc(-c3ccccn3)cs2)o1 [5-methyl-N-[4-(2-pyridinyl)-2-thiazolyl]-2-furancarboxamide]
